Usually inhibition stands for the drop in the measured response relative to a control, in per cent.

Assay [1] deals with T1, Large conductance calcium-activated potassium channel (Bos taurus) (UniProt Q28204+Q28067). As to the kind of experiment: Inhibition of large conductance calcium-activated potassium channel in bovine smooth muscle cells at 30 uM. In kind it is functional, cell-based.
For assay [2], the target named is T1, Large conductance calcium-activated potassium channel (Bos taurus). The assay can be described thus: Inhibition of large conductance calcium-activated potassium channel in bovine smooth muscle cells at 10 uM. The class given is functional, cell-based.

On to `O=C(OC[C@H]1CO[C@](Cn2ccnc2)(c2ccc(Cl)cc2Cl)O1)c1ccccc1`, for which, in assay [1], the inhibition was found to be 40%.

Take `Clc1ccc([C@@]2(Cn3ccnc3)OC[C@H](COc3ccc(Br)cc3)O2)c(Cl)c1`: the inhibition in assay [1] worked out at 95%. In the case of `Clc1ccc([C@@]2(Cn3ccnc3)OC[C@H](COc3ccc(N4CCCCC4)cc3)O2)c(Cl)c1`, the inhibition in assay [2] was found to be 80%. As to `Cc1ccc(S(=O)(=O)OC[C@H]2CO[C@](Cn3ccnc3)(c3ccc(Cl)cc3Cl)O2)cc1`, the inhibition in assay [1] is 2%. With `Clc1ccc([C@@]2(Cn3ccnc3)OC[C@H](COc3ccccc3)O2)c(Cl)c1`, the inhibition in assay [1] stood at 73%.
